The record followed here is article PMC10134988, “An Arylbenzofuran, Stilbene Dimers, and Prenylated Diels–Alder Adducts as Potent Diabetic Inhibitors from Morus bombycis Leaves” (Antioxidants, 2023).

Like-named read-outs stand apart in the source and are kept apart here.

One assay has as its system BSA-AGEs formation. Briefly: Inhibition of BSA-AGEs formation. The note with it: mean ± SD, triplicate. In kind it is biochemical. On the procedure: (§1) The inhibitory activity of HRAR was examined according to previous literature with modifications. First, 150 µL of 100 mM sodium phosphate buffer (pH 6.2), 20 µL of 0.3 mM NADPH as the co-enzyme, 5 µL of the test samples (50, 10, and 2 mg/mL or 100% DMSO), and 20 µL of 10 mM DL-glyceraldehyde as the substrate were added to each of the 96 wells (final volume 200 µL). Quercetin was used as a positive control. The inhibitory activity of AGEs formation was examined according to the modified method. Aminoguanidine hydrochloride was used as a positive control for the AGEs formation inhibition assay.

The subject of another assay is HAS-AGEs formation. The experiment in a line: Inhibition of HSA-AGEs formation. In kind it is biochemical. The conditions noted are these: mean ± SD, triplicate. On the procedure:
as §1

For assay [1], the target named is T1, human recombinant aldose reductase (HRAR) (Homo sapiens, UniProt P15121).
T1 construct: purchased Wako Chemicals (Osaka, Japan)
Briefly: HRAR inhibitory activity. In kind it is biochemical. From the text:
(§2) Protein tyrosine phosphatase 1B (PTP1B) was purchased from ENZO (Farmingdale, NY, USA). Human recombinant AR (0.4 units) was purchased from Wako Chemicals (Osaka, Japan). Citric acid trisodium salt dehydrate, citric acid monohydrate, sodium carbonate anhydrous, sodium chloride, sodium phosphate dibasic anhydrous, and sodium phosphate monobasic dehydrate were purchased from SAMCHUN (Seoul, Korea). Peroxynitrite (ONOO^−), 3-[(3-cholamidopropyl)dimethylammonio]-1-propanesulfonate (CHAPS), and sodium azide were purchased from Bio-Rad Laboratories Calbiochem (San Diego, CA, USA), GENERAY BIOTECH (Shanghai, China), and JUNSEI (Chuoku, Tokyo, Japan), respectively.
The inhibitory activity of HRAR was examined according to previous literature with modifications. First, 150 µL of 100 mM sodium phosphate buffer (pH 6.2), 20 µL of 0.3 mM NADPH as the co-enzyme, 5 µL of the test samples (50, 10, and 2 mg/mL or 100% DMSO), and 20 µL of 10 mM DL-glyceraldehyde as the substrate were added to each of the 96 wells (final volume 200 µL). […] The inhibitory activity of AGEs formation was examined according to the modified method. Aminoguanidine hydrochloride was used as a positive control for the AGEs formation inhibition assay.

Assay [2] deals with α-glucosidase. The experiment in a line: α-Glucosidase enzyme kinetics (Lineweaver–Burk and Dixon plots). In kind it is biochemical, Saccharomyces cerevisiae. The conditions noted are these: substrate pNPG; for Ki: Dixon plots, read-out: α-Glucosidase Inhibition Constant (Ki); for α-Glucosidase Inhibition Mode: Lineweaver–Burk plots. On the procedure: (§3) The two kinetic methods, Lineweaver–Burk plots and Dixon plots, were used to determine the inhibition mechanism. The α-glucosidase inhibition type was measured at various concentrations of substrate (pNPG, 0.625, 1.25, and 2.5 mM) and several concentrations of test compounds (0.8, 0.4, and 0.16 μM for compound 4; 2, 0.8, and 0.16 μM for 6; 3.17, 1.59, and 0.63 μM for 7; 1.54, 1.04, and 0.62 μM for 8) using Lineweaver–Burk double reciprocal plots. The PTP1B enzyme inhibition type was also measured at various concentrations of substrate (pNPP, 0.5, 1.0, 2.0, and 4.0 mM) and several concentrations of test compounds (4.0, 2.0, and 0.8 μM for compound 4; 2.0, 0.8, and 0.16 μM for 6; 15.87, 7.93, 3.17, and 0.63 μM for 7; 6.17, 3.08, 1.54 and 0.78 μM for 8) using Lineweaver–Burk double reciprocal plots. Dixon plots were used to determine the inhibition constant (Ki) of each compound by testing the effects of substrate and compounds against the α-glucosidase and PTP1B under the same conditions as described above.
(§4) Enzyme kinetic analysis was performed with different concentrations of substrate (pNPG and pNPP) and various concentrations of compounds to determine the type of inhibition on the compounds. Lineweaver–Burk and Dixon plots were used to determine the type of inhibition in enzyme kinetics. Each line of inhibitors intersected at the xy-side, indicating mixed-type inhibitors. On the other hand, the lines penetrated the same point on the x-intercept, representing non-competitive inhibitors in Lineweaver–Burk plots, and the Dixon plot was also used to calculate the Ki value for the enzyme inhibitor complex with the value shown on the x-axis indicating the -Ki value.

Assay [3] concerns the target T2, PTP1B (Homo sapiens, UniProt P18031).
T2 construct: purchased ENZO (Farmingdale, NY, USA)
T2 sequence (P18031 1-435): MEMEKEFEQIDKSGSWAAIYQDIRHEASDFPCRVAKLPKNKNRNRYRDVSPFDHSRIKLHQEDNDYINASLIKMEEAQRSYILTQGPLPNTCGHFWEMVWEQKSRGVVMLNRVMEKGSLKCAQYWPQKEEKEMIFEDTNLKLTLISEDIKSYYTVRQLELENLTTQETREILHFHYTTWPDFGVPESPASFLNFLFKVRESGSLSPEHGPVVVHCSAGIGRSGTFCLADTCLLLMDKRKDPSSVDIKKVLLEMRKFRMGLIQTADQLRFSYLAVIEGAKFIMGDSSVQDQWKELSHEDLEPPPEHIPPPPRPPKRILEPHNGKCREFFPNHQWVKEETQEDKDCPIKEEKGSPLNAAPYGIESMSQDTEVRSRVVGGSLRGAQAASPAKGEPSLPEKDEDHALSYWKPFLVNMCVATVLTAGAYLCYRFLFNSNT
The experiment in a line: PTP1B inhibitory activity. In kind it is biochemical.
Text: as §2
(§5) The enzyme inhibition study was executed spectrophotometrically following the previous literature.

Assay [4] has as its target α-glucosidase. The experiment in a line: α-Glucosidase inhibitory activity. It is filed as biochemical, Saccharomyces cerevisiae. The note with it: isolated compounds; mean ± SD, triplicate.
Text: as §2, §5

Assay [5] concerns the target T2, PTP1B. The experiment in a line: PTP1B enzyme kinetics (Lineweaver–Burk and Dixon plots). In kind it is biochemical. The conditions noted are these: substrate pNPP; for Ki: Dixon plots, read-out: PTP1B Inhibition Constant (Ki); for PTP1B Inhibition Mode: Lineweaver–Burk plots. How it is done:
as §3, §4

Assay [6] in a line: ONOO− scavenging activity (DHR123). The conditions noted are these: mean ± SD, triplicate; read-out: Peroxynitirite IC50. On the procedure: ONOO^− scavenging activity was measured using the method in previous literature involving measuring highly fluorescent rhodamine 123 that is converted from non-fluorescent DHR123 in the presence of ONOO^− [49].
The nature of assay [7]: DPPH radical scavenging activity. The note with it: Table 1; mean ± SD, triplicate. On the procedure:
(§6) The ABTS and DPPH radical scavenging activity of the extract and each fraction obtained from M. bombycis leaves were measured according to previous literature with modifications.

The nature of assay [8]: ABTS radical scavenging activity. The note with it: Table 1; mean ± SD, triplicate. On the procedure:
as §6

Setting [9] is: one result of a single experiment, read-out: HRAR IC50.
Setting [10] is: isolated compounds, mean ± SD, triplicate, read-out: PTP1B IC50.

Usually IC50 stands for the concentration needed to halve the response being measured. As for `Cl.N=C(N)NN` [Aminoguanidine, aminoguanidine hydrochloride, reference compound], the figures for the IC50 in the assay with BSA-AGEs formation and in the assay with HAS-AGEs formation were 581 ± 28.7 µM and 504 ± 14.9 µM, respectively. For the same compound, the “BSA-AGEs IC50” value in the assay with BSA-AGEs formation (subfractions of EtOAc fraction, Table S1) came out at 36.73 ± 1.64 µg/mL.
The term Ki denotes a measure of affinity in units of concentration, obtained from inhibition or displacement. For the compound `Oc1cc(O)cc(-c2cc3cc4c(cc3o2)OC(c2cc(O)cc(O)c2)C(c2ccc(O)cc2O)O4)c1` (stereo not shown) [Austrafuran C (6), austrafuran C], the IC50 in assay [1] (setting [9]) worked out at 26.8 µM; on PTP1B [3] (setting [10]), 1.69 ± 0.02 µM; on α-glucosidase [4], 1.01 ± 0.17 µM; in assay [6], 2.76 ± 0.25 µM; in the assay on BSA-AGEs formation, 13.7 ± 0.55 µM; in the assay on HAS-AGEs formation it was 6.15 ± 0.25 µM. In addition, the inhibition constant (Ki) on α-glucosidase [2] amounted to 0.75 µM; on PTP1B [5], 1.45 µM. The “α-Glucosidase Inhibition Mode” value with α-glucosidase [2] was “Mixed”. The “PTP1B Inhibition Mode” value on PTP1B [5] is on record as “Mixed”; on PTP1B [5] (listed as 6), “mixed-type inhibition”.
With `CC(C)=CCc1c(O)ccc(C(=O)[C@H]2[C@@H](c3c(O)cc(-c4cc5ccc(O)cc5o4)cc3O)C=C(C)C[C@@H]2c2ccc(O)cc2O)c1O` [Chalcomoracin (8), chalcomoracin], the IC50 came out at 265 µM in assay [1] (setting [9]); 2.06 ± 0.39 µM at PTP1B [3] (setting [10]); 0.98 ± 0.03 µM against α-glucosidase [4]; 3.03 ± 0.53 µM in [6]; 137.6 ± 0.33 µM with BSA-AGEs formation; 113 ± 3.62 µM with HAS-AGEs formation. Also, the Ki at α-glucosidase [2] was 1.71 µM; at PTP1B [5], 4.41 µM. Further, in the assay with α-glucosidase [2], the “α-Glucosidase Inhibition Mode” value was “Mixed”. Also, the “PTP1B Inhibition Mode” value at PTP1B [5] is given as “Non-competitive”; on PTP1B [5] (listed as 8), “non-competitive-type inhibition”.
Take `CC(C)(S)[C@H](N)C(=O)O` [L-Penicillamine, reference compound]: the IC50 in [6] turned out to be 0.62 ± 0.17 µM.
In the case of `O=C1O[C@H]([C@@H](O)CO)C(O)=C1O` [L-ascorbic acid], the “DPPH IC50” value in assay [7] turned out to be 2.82 ± 0.57 µg/mL. For the same compound, the “ABTS IC50” value in [8] is 3.38 ± 0.19 µg/mL.
Consider `Oc1cc(O)cc(-c2cc3c4c(c(O)cc3o2)OC(c2ccc(O)cc2O)C4c2cc(O)cc(O)c2)c1` (stereo not shown) [Macrourin B (4), macrourin B], for which the IC50 in assay [1] (setting [9]) was < 4 µM; at PTP1B [3] (setting [10]), 2.5 ± 0.17 µM; on α-glucosidase [4] it was 0.44 ± 0.03 µM; in [6], 2.61 ± 0.13 µM; with BSA-AGEs formation it was 9.44 ± 0.18 µM; in the assay with HAS-AGEs formation it was 7.98 ± 0.62 µM. Besides, the values for the Ki on α-glucosidase [2] and on PTP1B [5] were 0.19 µM and 1.54 µM, respectively. The “α-Glucosidase Inhibition Mode” value in the assay with α-glucosidase [2] is given as “Mixed”. The “PTP1B Inhibition Mode” value at PTP1B [5] is on record as “Mixed”; on PTP1B [5] (listed as 4) it was “mixed-type inhibition”.
Turning to `Oc1cc(O)cc(-c2cc3ccc(O)cc3o2)c1` [Moracin M (5), moracin M], the IC50 came to 238 µM in [1] (setting [9]); 27.1 ± 4.2 µM on PTP1B [3] (setting [10]); 6.11 ± 0.53 µM on α-glucosidase [4]; 0.92 ± 0.13 µM in assay [6]; 2.4 ± 0.18 µM with BSA-AGEs formation; 2.07 ± 0.03 µM with HAS-AGEs formation.
Take `CC(C)=CCc1c(O)ccc(C23Oc4cc(O)ccc4C4CC(C)=CC(c5c(O)cc(-c6cc7ccc(O)cc7o6)cc5O2)C43)c1O` (stereo not shown) [Mulberrofuran F (7), mulberrofuran F]: the IC50 in [1] (setting [9]) amounted to 337 µM; at PTP1B [3] (setting [10]), 10.5 ± 0.25 µM; against α-glucosidase [4], 1.22 ± 0.05 µM; in assay [6] it was 8.63 ± 0.02 µM. Moreover, the Ki on α-glucosidase [2] came out at 1.84 µM; at PTP1B [5] it was 8.9 µM. In addition, in the assay on α-glucosidase [2], the “α-Glucosidase Inhibition Mode” value is “Mixed”. Further, the “PTP1B Inhibition Mode” value at PTP1B [5] is given as “Mixed”; on PTP1B [5] (listed as 7), “mixed-type inhibition”.
Regarding `Oc1cc(O)cc(/C=C/c2ccc(O)cc2O)c1` [Oxyresveratrol (3), oxyresveratrol], the IC50 in assay [1] was 265 µM; on PTP1B [3], 72.9 ± 1.87 µM; against α-glucosidase [4] it was 2.58 ± 0.23 µM; in assay [6], 6.24 ± 0.06 µM; in the assay with BSA-AGEs formation it was 10.4 ± 0.39 µM; in the assay with HAS-AGEs formation, 5.38 ± 0.26 µM.
`Cc1c(C)c2c(c(C)c1O)CCC(C)(C(=O)O)O2` (stereo not shown) [Trolox, 6-hydroxy-2,5,7,8-tetramethylchloman-2-carboxylic acid]: in assay [8], the “ABTS IC50” value is 2.72 ± 0.13 µg/mL.
